Laboratory results: ChEMBL document CHEMBL4619716, “Machine Learning in Mass Spectrometry: A MALDI-TOF MS Approach to Phenotypic Antibacterial Screening” (2020)
Activity calls are given as the source filed them. The calls are words filed in the database; no cut-off is given here.

Test system: Escherichia coli
Assay: Antimicrobial activity against Escherichia coli ATCC 25922 assessed as induction of changes in mass spectral profile of bacteria by measuring decrease in peak at m/z 6320 and increase in peak at m/z 6405 at 1/16 to 1 times MIC uM by MALDI-TOF MS analysis
Type: functional, organism-based

**Q.** For `CC1(C)S[C@@H]2[C@H](NC(=O)[C@H](N)c3ccc(O)cc3)C(=O)N2[C@H]1C(=O)O`, which Activity is on record?
**A.** Dose-dependent effect

Test system: Escherichia coli
Assay: Antimicrobial activity against Escherichia coli ATCC 25922 assessed as induction of changes in mass spectral profile of bacteria 1 times MIC uM by MALDI-TOF MS analysis
Type: functional, organism-based

**Q.** Which Activity does the source give for `CC1(C)S[C@@H]2[C@H](NC(=O)Cc3ccccc3)C(=O)N2[C@H]1C(=O)O` here?
**A.** Active

**Q.** Which Activity does the source give for `CO/N=C(\C(=O)N[C@@H]1C(=O)N2C(C(=O)O)=C(COC(N)=O)CS[C@H]12)c1ccco1` here?
**A.** Active

**Q.** `CN[C@H](CC(C)C)C(=O)N[C@H]1C(=O)N[C@@H](CC(N)=O)C(=O)N[C@H]2C(=O)N[C@H]3C(=O)N[C@H](C(=O)N[C@H](C(=O)O)c4cc(O)cc(O)c4-c4cc3ccc4O)[C@H](O)c3ccc(c(Cl)c3)Oc3cc2cc(c3O[C@@H]2O[C@H](CO)[C@@H](O)[C@H](O)[C@H]2O[C@H]2C[C@](C)(N)[C@H](O)[C@H](C)O2)Oc2ccc(cc2Cl)[C@H]1O` was tested. Which Activity did it give?
**A.** Active

**Q.** `CO/N=C(\C(=O)N[C@@H]1C(=O)N2C(C(=O)O)=C(COC(C)=O)CS[C@H]12)c1csc(N)n1` was tested. Which Activity did it give?
**A.** Active

**Q.** `CC1(C)S[C@@H]2[C@H](NC(=O)[C@H](N)c3ccc(O)cc3)C(=O)N2[C@H]1C(=O)O` was tested. Which Activity did it give?
**A.** Active
